Assay results published in publication PMC9308496 (Journal of medicinal chemistry, 2021).

Legend:
[1] = dogs; cited from earlier work
MOR (SNAP-mMOR) = MOR (SNAP-mMOR) (Mus musculus, UniProt P42866); assay: BRET antagonism at MOR using GPA in the presence of 100 nM DAMGO; assay type: cell-based
hD2R (human D2LR) = hD2R (human D2LR) (Homo sapiens, UniProt P14416); assay: Radioligand competition binding at hD2R with [3H]-N-methylspiperone
hD3R = hD3R (Homo sapiens, UniProt P35462); assay: Radioligand competition binding at hD3R with [3H]-N-methylspiperone
Sequence of hD3R (P35462 whole entry): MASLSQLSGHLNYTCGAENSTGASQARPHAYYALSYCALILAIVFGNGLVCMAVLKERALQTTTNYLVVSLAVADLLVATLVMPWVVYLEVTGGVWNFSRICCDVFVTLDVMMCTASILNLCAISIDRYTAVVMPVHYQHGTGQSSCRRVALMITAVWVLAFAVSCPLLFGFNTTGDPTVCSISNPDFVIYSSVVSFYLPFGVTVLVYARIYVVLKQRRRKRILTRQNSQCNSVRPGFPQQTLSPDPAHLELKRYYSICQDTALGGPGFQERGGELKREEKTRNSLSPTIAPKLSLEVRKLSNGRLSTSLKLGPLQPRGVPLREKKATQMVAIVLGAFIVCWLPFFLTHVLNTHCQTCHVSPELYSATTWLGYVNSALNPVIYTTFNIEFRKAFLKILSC

Sequence of MOR (SNAP-mMOR) (P42866 whole entry): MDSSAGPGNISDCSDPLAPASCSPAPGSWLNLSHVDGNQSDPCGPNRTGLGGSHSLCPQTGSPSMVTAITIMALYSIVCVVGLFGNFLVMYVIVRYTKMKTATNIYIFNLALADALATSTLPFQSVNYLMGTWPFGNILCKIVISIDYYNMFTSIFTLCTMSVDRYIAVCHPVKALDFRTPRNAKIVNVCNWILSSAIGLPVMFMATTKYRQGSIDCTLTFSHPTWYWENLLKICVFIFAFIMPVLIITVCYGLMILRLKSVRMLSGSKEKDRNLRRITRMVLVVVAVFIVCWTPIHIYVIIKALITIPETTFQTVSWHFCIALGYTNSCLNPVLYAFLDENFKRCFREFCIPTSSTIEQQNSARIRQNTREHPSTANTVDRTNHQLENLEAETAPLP
Sequence of hD2R (human D2LR) (P14416 whole entry): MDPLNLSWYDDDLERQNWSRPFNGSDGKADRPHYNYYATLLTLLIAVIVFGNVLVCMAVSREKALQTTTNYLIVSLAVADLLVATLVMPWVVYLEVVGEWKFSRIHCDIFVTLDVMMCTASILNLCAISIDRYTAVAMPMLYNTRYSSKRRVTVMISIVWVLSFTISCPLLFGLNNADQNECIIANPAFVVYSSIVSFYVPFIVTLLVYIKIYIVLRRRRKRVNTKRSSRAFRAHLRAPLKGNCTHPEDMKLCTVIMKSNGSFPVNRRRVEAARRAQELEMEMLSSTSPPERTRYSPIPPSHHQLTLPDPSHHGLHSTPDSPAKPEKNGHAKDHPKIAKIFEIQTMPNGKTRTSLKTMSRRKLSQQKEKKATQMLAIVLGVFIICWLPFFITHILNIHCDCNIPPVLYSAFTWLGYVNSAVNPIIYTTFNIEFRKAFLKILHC

SMILES: Cc1ncoc1-c1nnc(SCCCN2C[C@@H]3C[C@]3(c3ccc(C(F)(F)F)cc3F)C2)n1C [GSK598809]
- potentiation of hypertensive effects of cocaine [1]: potentiation of hypertensive effects observed in dogs produced by cocaine

SMILES: CCOC(=O)/C=C1\[C@@H]2CCC[C@@]1(c1cccc(O)c1)CCN2CCCCNC(=O)c1cc2ccccc2[nH]1 [compound 57, trans-Ethyl (Z)-2-((1S,5S)-2-(4-(1H-indole-2-carboxamido)butyl)-5-(3-hydroxyphenyl)-2-azabicyclo[3.3.1]nonan-9-ylidene)acetate]
- IC50 (MOR (SNAP-mMOR)): 3.52 µM

SMILES: CCC(=O)C(CC(C)N(C)C)(c1ccccc1)c1ccccc1 (centres unmarked) [compound 6, methadone]
- D2R Ki (hD2R (human D2LR)): completely inactive

SMILES: CCOC(=O)/C=C1\[C@@H]2CCC[C@@]1(c1cccc(O)c1)CCN2CCN1CCN(c2cccc(Cl)c2Cl)CC1 [compound 65, Ethyl (Z)-2-((1S,5S)-2-(2-(4-(2,3-dichlorophenyl)piperazin-1-yl)ethyl)-5-(3-hydroxyphenyl)-2-azabicyclo[3.3.1]nonan-9-ylidene)acetate]
- Ki (hD3R): 139 nM

SMILES: O=C(NCCCCN1CC[C@]2(c3cccc(O)c3)CCC[C@H]1[C@H]2O)c1cc2ccccc2[nH]1 [compound 62, N-(4-((1S,5S,9S)-9-Hydroxy-5-(3-hydroxyphenyl)-2-azabicyclo[3.3.1]nonan-2-yl)butyl)-1H-indole-2-carboxamide]
- Ki (hD3R): 79.6 nM
